Assay results reported in US20240307414A1, “METHODS AND MATERIALS FOR TREATING PROSTATE CANCER” (Mayo Foundation for Medical Education and Research, priority 2020, published 2024).
“Also recorded” adds a separate entry of the source. Like-named read-outs stand apart in the source and are kept apart here.

Columns and labels:
[1] = test system: LNCaP parental and LNCaP-AbiRes cells; experiment: Cytotoxicity and proliferation assay (Cyquant direct assay), LNCaP parental and AbiRes; format: cell-based, human; details: for IC50: LNCaP, single treatment preliminary experiments, concentration used in combination with Abi (FIG. 6B), except PD-0325901, read-out: Concentrations corresponding to IC50 of each drug
Procedure: (§1) 22Rv1 and LNCaP cells purchased from ATCC were routinely cultured in RPMI1640 medium (Gibco, Grand Island, NY) supplemented with 10% FBS (Atlanta Biologicals, Flowery Branch, GA) and 1% Pen-Strep. […] Abi resistant cells (LNCaP-AbiRes or 22Rv1-AbiRes) were compared with parental cells for viability and gene expression after Abi and other treatments.
(§2) Forty eight hours before abiraterone treatment, cell was seeded in phenol red-free RPMI (Gibco, Grand Island, NY) supplemented with 10% charcoal stripped FBS (Thermo Fisher Scientific, Waltham, MA), and 50 nM pregnenolone was added after 24 hours.

[2] = test system: 11 genes (CCNA2, CCNB1, CCNB2, PRC1, SMC2, DLGAP5, ECT2, FBXO5, CDK1, NCAPG, KIF4A); experiment: qRT-PCR of the 11 genes in cell lines and PDX organoids after drug treatment; format: cell-based, human; details: for expression of the 11 genes (qRT-PCR): 22Rv1 and LNCaP parental/AbiRes cells, organoids MC-PRX-01 and MC-PRX-05, alone or with Abi
Procedure: Total RNA for qRT-PCR was extracted from tumor organoids or cell lines using Quick-RNA MiniPrep Kit (Zymo Research, Irvine, CA) according to the manufacturer's instructions. qRT-PCR was performed using the Power SYBR® Green RNA-to-CT 1-Step Kit (Life Technologies, Grand Island, NY) and QuantiTect® (QIAGEN, Germantown, MD) or PrimeTime® (IDT, Inc., Coralville, Iowa) pre-designed qPCR primers (IDT Coralville, IA). Gene expression analyses were performed using ΔΔCt method, and β-actin was used as the internal reference. Three independent experiments were performed. Primer sequences are in Table 1.

[3] = test system: 22Rv1 parental and 22Rv1-AbiRes cells; experiment: Cytotoxicity and proliferation assay (Cyquant direct assay), 22Rv1 parental and AbiRes; format: cell-based, human; details: single treatment preliminary experiments, concentration used in combination with Abi (FIG. 6A), read-out: Concentrations corresponding to IC50 of each drug
Procedure: as §1, §2

MC-PRX-01 PDX tumor = experiment: MC-PRX-01 PDX model treated with abiraterone ± palbociclib/PHA-793887, 35 days; format: in vivo, mice
Procedure: All patient specimens were collected as part of the PROMOTE study as described elsewhere (see, for example, Champoux. Annu. Rev. Biochem., 70, 369-413 (2001); and Kellner et al., Lancet Oncol., 3, 235-243 (2002)). Briefly, pathology confirmed metastatic tumor biopsy tissues of mCRPC was renal capsule xenografted and 25 mg testosterone pellet was subcutaneously implanted into 6-8 weeks old male CB17 NOD-SCID mice (Jackson laboratories, Bar Harbor, Maine; Charles River Laboratories, Raleigh, North Carolina) and observed for at least 6 months or till the tumor reached 1.0-1.5 cm at maximal length, when sub-xenografts were expanded by subcutaneous implantation with harvested PDX tumor mixed with Matrigel (Corning, Corning, New York) with no exogenous testosterone supplied. Early generation PDX tumors were collected for cryo-storage and next-generation sequencing. Pathology confirmed PDX model generated from AA/P non-responder bone metastatic tumor biopsy tissues were employed to test the in vivo tumor response to abiraterone+Mito/Dox/Palb/PHA. After PDX tumor reached approximately 100 mm3, mice were randomized to 6 groups. […] Body weight and tumor volumes (width^2×length/2) were measured two to three times per week with a digital caliper, and the average tumor volumes were determined. At the end of the treatment period, mice were euthanized and the tumors were removed, dissected and frozen at −80° C. for further analysis.

[4] = test system: metastatic / castration-resistant prostate cancer; details: patients, literature; cited from earlier work
[5] = test system: PDX organoids MC-PRX-01 and MC-PRX-05; experiment: PDX derived organoid culture and cytotoxicity assay (3D cell titer)
[6] = test system: 11 genes in MC-PRX-01 and MC-PRX-06 PDX tumors; experiment: qRT-PCR of the 11 genes in post treatment PDX tumors; format: in vivo, mice; details: MC-PRX-01 and MC-PRX-06 tumors harvested after treatment

With `O=C(NOC[C@H](O)CO)c1ccc(F)c(F)c1Nc1ccc(I)cc1F` [PD-0325901, mirdametinib] the “response of LNCaP cells to the MEK inhibitor” value ([1]; LNCaP harbors a Q56P mutation) was “conferring resistance to this MEK inhibitor” and the “expression of the 11 genes (qRT-PCR)” value [2] was “less consistency in the suppression”.

For `CC(C)CC(=O)Nc1n[nH]c2c1CN(C(=O)C1CCN(C)CC1)C2(C)C` [PHA-793887], the IC50 [3] was 0.1 µM, the IC50 [1] was 0.1 µM and the “expression of the 11 genes (qRT-PCR)” value [2] was “less consistency in the suppression”. For the same molecule, the tumor growth (MC-PRX-01 PDX tumor; 35 days) was “inhibited tumor growth”, the “tumor growth inhibition as single treatment” value (MC-PRX-01 PDX tumor; 35 days, tested dosage) was “did not exhibit statistically significant inhibition” and the “sensitization of the tumor to Abi treatment” value (MC-PRX-01 PDX tumor; combination with Abi) was “sensitize the tumor to Abi treatment”.

In the case of `CC(=O)O[C@H]1CC[C@@]2(C)C(=CC[C@@H]3[C@@H]2CC[C@]2(C)C(c4cccnc4)=CC[C@@H]32)C1` [abiraterone acetate], the overall survival [4] is given as “extend overall survival significantly”.

In the case of `C[C@]12CC[C@H](O)CC1=CC[C@@H]1[C@@H]2CC[C@]2(C)C(c3cccnc3)=CC[C@@H]12` [abiraterone], the “inhibition of organoid growth” value ([5]; abiraterone alone at the highest tested concentration, MC-PRX-01 and MC-PRX-05 organoids) is reported as “less than 10%”.

For `COc1cccc2c1C(=O)c1c(O)c3c(c(O)c1C2=O)C[C@@](O)(C(=O)CO)C[C@@H]3O[C@H]1C[C@H](N)[C@H](O)[C@H](C)O1` [doxorubicin], the “expression of the 11 genes in PDX tumors after treatment (qRT-PCR)” value [6] was “significantly downregulated”.

For `O=C1c2c(O)ccc(O)c2C(=O)c2c(NCCNCCO)ccc(NCCNCCO)c21` [mitoxantrone], the IC50 ([1]; Homo sapiens) was 0.01 µM, the “expression of the 11 genes (qRT-PCR)” value [2] was “most consistently suppressed the expression of the 11 genes; also recorded: more significant effects on the 11 gene suppression” and the “suppression of the 11 genes in LNCaP Abi-resistant cells compared to parental cells” value ([2]; LNCaP AbiRes vs parental) was “better suppression effects”. The “expression of the 11 genes in PDX tumors after treatment (qRT-PCR)” value [6] was “significantly downregulated” and the “potency relative to the other identified drugs in cytotoxicity experiments” value ([5]; range of doses tested, FIG. 6) was “superior to others; also recorded: most potent”.
